Laboratory results from patent publication US5409952A, “Heterocyclic compounds: 2-styryl-4H-1-benzopyran-4-ones” (Adir et Compagnie, priority 1990, dated 1995).

Experiments:
HL-60 cells = assay: Cell differentiation of HL-60 cells (NBT reduction); type: cell-based, human; details: HL-60, 20 μM, six days
Protocol: The cell differentiation is determined according to the method of J. M. GALLUP and al. (Proceedings of the Society for Experimental Biology and Medecine, 186, 269-274, 1987).
HL-60 cells (human promyclocyte) (2×10^5 cells/ml) are incubated during six days with the tested compounds. An aliquot (0,5 ml) of cells is than incubated with 0,5 ml of a 0,2% NBT (Nitroblue Tetrazolium) solution and […] of PMA (phorbol ester) for 20 min at 37° C.
Cells are washed with PBS and numbered under microscope, Table VII lists the percentage of cells containing cristals of reduced NBT (i,e, % of positive NBT cells) at the concentration of 20 μM.

L1210 cell line = assay: Growth inhibition of cell line L1210 (tritiated thymidine incorporation); type: cell-based, mice; details: Mus musculus, L1210, 24 hours, read-out: IC50, concentration that inhibits cell growth by 50%
Protocol: The growth of this leukaemia cell line in mice is assessed by the capacity of the cells to incorporate tritiated thymidine. The rate of incorporation is measured 24 hours after the introduction of the test compound into the culture medium.
Table V lists, for each compound, the concentration that inhibits cell growth by 50%.

colon C38 adenocarcinoma = assay: Anti-tumour activity on colon C38 adenocarcinoma in vivo; set-up: species or system mice; details: colon 38 fragment s.c.; i.p. on 2nd and 4th days after implantation; day 20
Protocol: After subcutaneous implantation of a fragment of tumour (colon 38) in the axillary region, on the 2nd and 4th days after implantation a solution of the test compound is administered to a group of animals by the intraperitoneal route. On the 20th day the animals are sacrificed and the tumour volume is ascertained.
The % T/C ratio is calculated as follows: [formula]

Hypervitamin A toxicity = details: result in words
[1] = patent EP 237166; isolated from an alga; cited from earlier work

Compound	% of positive NBT cells (HL-60 cells)	IC50 (L1210 cell line)	also measured
COC(=O)c1c(OC)cc2oc(/C=C/c3ccccc3)cc(=O)c2c1OC [Example 1, Methyl 5,7-Dimethoxy-4-Oxo-2-Styryl-4H-1-Benzopyran-6-Carboxylate]	52%	12.5 µM	T/C % (colon C38 adenocarcinoma): 56%; Tumour volume after 20 days (colon C38 adenocarcinoma): 573 mm3
C=CCc1cccc2c(=O)cc(/C=C/c3ccccc3)oc12 [Example 18, 8-Allyl-2-Styryl-4H-1-Benzopyran-4-One]	–	5.85 µM	–
C=CCc1cc(OC)cc2c(=O)cc(/C=C/c3ccccc3)oc12 [Example 20, 6-Methoxy-8-Allyl-2-Styryl-4H-1-Benzopyran-4-One]	–	3 µM	–
COC(=O)c1c(OC)cc2oc(/C=C/c3cc(OC)c(OC)c(OC)c3)cc(=O)c2c1OC [Example 3, Methyl 5,7-Dimethoxy-4-Oxo-2-(3,4,5-Tri-Methoxystyryl) -4H-1-Benzopyran-6-Carboxylate]	59%	5 µM	–
COc1ccc(/C=C/c2cc(=O)c3c(OC)c4ccoc4cc3o2)cc1OC [Example 7, 4-Methoxy-7-(3,4-Dimethoxystyryl)-5H -Furo[3,2-g]Benzopyran-5-One]	–	8.5 µM	–
COC(=O)c1c(OC)cc2oc(/C=C/c3ccc(OC)c(OC)c3)cc(=O)c2c1OC [Example 2, Methyl 5,7-Dimethoxy-4-Oxo-2-(3,4-Dimethoxy-Styryl) -4H-1-Benzopyran-6-Carboxylate]	85%	6.4 µM	T/C % (colon C38 adenocarcinoma): 35%; Tumour volume after 20 days (colon C38 adenocarcinoma): 356 mm3
COC(=O)c1ccc(/C=C/c2cc(=O)c3c(OC)c(C(=O)OC)c(OC)cc3o2)cc1 [Example 4, Methyl 5,7-Dimethoxy-2-(4-Methoxycarbonyl-Styryl)-4H -1-Benzopyran-6-Carboxylate]	–	12 µM	–
CC1=C(/C=C/C(C)=C/C=C/C(C)=C/C(=O)O)C(C)(C)CCC1 [Retinoic acid, reference compound]	–	20.1 µM	Hypervitamin A toxicity (Hypervitamin A toxicity): causing hypervitamin A toxicity
CCCc1cccc2c(=O)cc(/C=C/c3ccccc3)oc12 [Example 21, 8-Propyl-2-Styryl-4H-1-Benzopyran-4-One]	–	7.25 µM	–
Cc1c(/C=C/c2ccccc2)oc2c(C)cccc2c1=O [Example 17, 3,8-Dimethyl-2-Styryl-4H-1-Benzopyran-4-One]	–	7.5 µM	–
hormo-thamnione	–	–	Cytotoxic properties [1]: cytotoxic properties
C=CCc1cccc2c(=O)c(C)c(/C=C/c3ccccc3)oc12 [Example 19, 8-Allyl-3-Methyl-2-Styryl-4H-1-Benzopyran-4-One]	45%	6.6 µM	–
